Measured values reported in US11884747B2, “Compstatin analogs with increased solubility and improved pharmacokinetic properties” (The Trustees of the University of Pennsylvania, priority 2018, dated 2024).
Values joined by “and” are separate entries in the source; they are usually repeats but may differ in a detail not shown here. Identical values can stand only once. “Also recorded” adds a separate entry of the source.

Assays:
[1] = for pH of the peptide solution in PBS: at the stated concentration, indicator paper
human C3b = target: T1, human C3b (Homo sapiens, UniProt P01024); assay: SPR binding affinity and kinetic profile with immobilized C3b; conditions: for ka, association constant / kd, dissociation constant / Kd: 25 °C; for ka, association constant / kd, dissociation constant: 1:1 Langmuir model; for Kd: KD=kd/ka, read-out: KD, equilibrium dissociation constant
T1 construct: purchased Complement Technology, Inc., Tyler, TX
T1 sequence (P01024 23-667 limits assumed): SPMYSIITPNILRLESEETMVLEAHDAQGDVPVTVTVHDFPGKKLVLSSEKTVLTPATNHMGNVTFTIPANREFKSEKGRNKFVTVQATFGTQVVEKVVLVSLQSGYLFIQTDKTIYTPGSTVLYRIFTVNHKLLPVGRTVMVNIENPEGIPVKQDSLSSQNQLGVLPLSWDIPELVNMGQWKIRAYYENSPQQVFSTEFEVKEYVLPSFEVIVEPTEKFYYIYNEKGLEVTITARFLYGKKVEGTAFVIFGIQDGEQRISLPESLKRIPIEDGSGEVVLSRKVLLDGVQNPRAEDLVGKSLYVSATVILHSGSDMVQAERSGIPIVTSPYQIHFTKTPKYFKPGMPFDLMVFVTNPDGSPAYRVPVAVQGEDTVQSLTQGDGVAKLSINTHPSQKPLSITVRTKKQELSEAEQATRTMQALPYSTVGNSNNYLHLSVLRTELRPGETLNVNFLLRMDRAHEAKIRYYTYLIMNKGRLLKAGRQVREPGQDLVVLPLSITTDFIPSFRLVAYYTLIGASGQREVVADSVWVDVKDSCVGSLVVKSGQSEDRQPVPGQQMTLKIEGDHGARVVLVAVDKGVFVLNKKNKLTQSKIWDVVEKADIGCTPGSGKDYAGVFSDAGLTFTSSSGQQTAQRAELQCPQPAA
T1 sequence (P01024 749-1663 partner limits assumed): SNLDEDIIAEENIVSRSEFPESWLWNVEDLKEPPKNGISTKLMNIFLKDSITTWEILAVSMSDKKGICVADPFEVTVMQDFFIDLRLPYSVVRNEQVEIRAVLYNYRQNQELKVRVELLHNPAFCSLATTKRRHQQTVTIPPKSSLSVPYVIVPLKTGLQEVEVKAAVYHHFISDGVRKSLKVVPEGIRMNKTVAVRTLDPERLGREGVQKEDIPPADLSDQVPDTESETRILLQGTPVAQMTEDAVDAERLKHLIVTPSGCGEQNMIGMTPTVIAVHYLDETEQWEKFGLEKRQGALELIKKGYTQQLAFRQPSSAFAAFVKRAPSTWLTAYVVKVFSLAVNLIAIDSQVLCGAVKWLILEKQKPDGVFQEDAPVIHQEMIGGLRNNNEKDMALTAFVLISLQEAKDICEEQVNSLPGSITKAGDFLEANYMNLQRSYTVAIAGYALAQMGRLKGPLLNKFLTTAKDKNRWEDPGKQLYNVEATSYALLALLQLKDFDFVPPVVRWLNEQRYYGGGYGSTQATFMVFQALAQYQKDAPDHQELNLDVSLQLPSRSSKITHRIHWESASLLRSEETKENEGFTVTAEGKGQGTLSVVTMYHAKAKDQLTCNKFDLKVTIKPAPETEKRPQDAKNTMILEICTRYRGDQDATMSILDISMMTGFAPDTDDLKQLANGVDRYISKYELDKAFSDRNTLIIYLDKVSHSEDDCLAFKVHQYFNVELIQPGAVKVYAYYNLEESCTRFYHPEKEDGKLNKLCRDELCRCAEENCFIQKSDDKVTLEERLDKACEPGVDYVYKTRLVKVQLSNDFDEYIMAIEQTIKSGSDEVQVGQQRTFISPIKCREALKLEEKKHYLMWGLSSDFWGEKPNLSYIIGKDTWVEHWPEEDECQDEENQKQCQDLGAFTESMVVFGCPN

[2] = test system: classical pathway of complement; assay: Classical pathway complement inhibition ELISA (C3b deposition) in normal human plasma; assay type: biochemical; conditions: human plasma diluted 1:40; mean of at least three experiments
Experimental: For this purpose, microtiter wells (NUNC) were coated with 50 μl of 1% ovalbumin in PBS (pH 7.4) at ambient temperature for 2 h. The wells were blocked with 200 μl of 1% BSA in PBS for 1 h, then coated with 50 μl of 1:1000 α-ovalbumin polyclonal antibody in PBS for 1 h. Between each step, the plate was washed thrice with 200 μl of 0.05% Tween 20 in PBS (PBS-T); 30 μl of VBS (Veronal buffer 1×; 5 mM veronal, pH 7.4, containing 150 mM NaCl, 0.5 mM CaCl2 and 0.5 mM MgCl2) were placed in all but the first well of each row of the 96-well plate, and 5 μM peptide solutions in VBS were prepared. […] Human plasma diluted 1:40 in VBS was incubated for 15 min with peptide of 0.005 to 2.5 μM. After washing with PBS-T, 50 μl/well of 1:1000 goat a-human C3 HRP conjugated antibody in 1% BSA in PBS was added to the wells and incubated for 1 h at room temperature. Complement fixation indicating activation was detected by the addition of HRP substrate (0.05% ABTS and 0.1% of 30% aqueous H2O2 in 0.1 M sodium citrate, pH 4.2) and read at 405 nm. The absorbance data obtained at 405 nm were translated into % inhibition, considering 100% to be equal to complement activation in the absence of peptide. The percent inhibition was plotted against the logarithm of concentrations, and the resulting data set was fitted to the equation “log(inhibitor) vs. normalized response” using GraphPad Prism 5 (La Jolla, CA). IC50 values were obtained from the fitted parameters of the mean of at least three independent experiments. Cp40 was always used as the internal control.

[3] = test system: complement classical pathway; assay: Classical pathway activation (C3b deposition) ELISA in human plasma with or without rabbit vitreous; assay type: biochemical; conditions: in the absence of vitreous
Experimental: An alternative explanation to the one presented above is that the vitreous contains additional unidentified factors that associate with the Cp40-KKK analog. To investigate whether an unidentified vitreous factor impacts the complement inhibitory activity of lysine containing compounds, complement activation assays were performed using vitreous samples. Briefly, human plasma was incubated with OVA-anti-OVA immune-complexes in the presence of serial dilutions of the Cp40-based analogs mixed with rabbit vitreous. Levels of classical pathway activation (C3b deposition) were determined by ELISA using a polyclonal anti-human C3 antibody conjugated with HRP (MP Biomedicals, Solon, OH) (FIG. 20).

[4] = Pharmacokinetics after single i.v. injection; assay type: in vivo, cynomolgus monkeys
Experimental: FIG. 11 show graphs of peptide concentration over time in cynomolgus monkeys to which was administered a single 2 mg/kg intravenous injection of Cp40-KK (panel a), Cp40-KKK (panel b), mPEG(1 k)-Cp40 (panel c), and mPEG(3 k)-Cp40 (panel d). […]
In vivo pharmacokinetic studies were conducted, in which cynomolgus monkeys were administered single i.v. injections of mPEG(1 k)-Cp40, mPEG(3 k)-Cp40, Cp40-KK, or Cp40-KKK.

[5] = Pharmacokinetics in NHP plasma after single s.c. injection, with plasma C3 levels
[6] = Residence time in the vitreous after single intravitreal injection (WES and SPR competition assay); assay type: in vivo, cynomolgus monkeys
Experimental: To determine the residence time of mPEG(3 k)-Cp40, mPEG(1 k)-Cp40, Cp40-KK, and Cp40-KKK in the vitreous of cynomolgus macaques, these Cp40-based analogs were administered intravitreally (i.v.t.) to the animals after induction of light ketamine anesthesia (10-15 mg/kg, by intramuscular injection (i.m.)) and dilation of the pupils with tropicamide/phenylephrine ophthalmic solution (see Table 6 for study design).
For i.v.t. injection, the cynomolgus monkeys were anesthetized with a combination of ketamine (15-25 mg/kg, i.m.) and xylazine (2 mg/kg, i.m.) and the eye was cleaned with povidone-iodine solution. After application of oxybuprocaine hydrochloride solution (Benoxil® ophthalmic solution 0.4%) to the cornea as a local anesthetic, the Cp40-based analogs were administered to the animals by i.v.t. injection into either the right (G1, G3) or left (G2, G4) eye of each animal. Immediately following each injection, a single topical dose of 0.5% levofloxacin was administered. After i.v.t. injection of mPEG(3 k)-Cp40, mPEG(1 k)-Cp40, Cp40-KK, and Cp40-KKK, vitreous fluid samples (about 50 μL each) were withdrawn from Cp40-based analog-treated eyes on days 14, 28, 42, (G1, G2, G3, G4), 56, 73, 90 (G1, G2) (this was done either three times or six times). Samples were collected on ice and stored in a deep freezer (˜79.3 to −68.5° C.) until further analysis. […] Presence and concentration of the Cp40-based analogs was determined using either the simple western technology (WES, ProteinSimple, San Jose, CA), or surface plasmon resonance (SPR)-based real-time measurement of binding kinetics on a Cp40-KKK immobilized chip (see detailed methods below). Similar results with regard to the intravitreal residence time and concentration levels of the test compounds were obtained regardless of the quantification method selected.
To quantify the levels of all test compounds in vitreous samples collected at different time points following i.v.t. injection (see FIG. 15), WES analysis was performed on a WES instrument (ProteinSimple, San Jose, CA) using a 2 to 40 kDa Separation Module and Anti-Rabbit Detection Module according to the manufacturers' instructions. […] The resulting electropherograms were evaluated using the Compass software (ProteinSimple, San Jose, CA). The following criteria were used to discriminate low peptide signals from background: The peak signal-to-noise (S/N) ratio given by the software must be ≥10, and the peak height/baseline ratio (calculated manually from the peak height and baseline values given by the software) must be equal to or greater than 3. […] Shown in FIG. 15 is a representative standard curve generated using the WES system and bands obtained upon running pre-determined amounts of purified peptide spiked into rabbit vitreous samples. […]

C3 = conditions: Qu et al. (2013); cited from earlier work

Compound	pH of the peptide solution in PBS [1]	Conc. (mg/ml), solubility in PBS ([1]; pH 7.4)	drop in the binding affinity toward C3b vs Cp40 (human C3b)	ka, association constant (human C3b)	kd, dissociation constant (human C3b)	Kd (human C3b)	IC50 [2]	complement classical pathway inhibitory activity [3]	in vivo Lys cleavage in plasma ([4]; after i.v. injection)	AUC(0-t) ([4]; cynomolgus monkey, plasma, iv, 2 mg/kg, single i.v. injection, read-out: AUC0-120h)	in vivo Lys cleavage in plasma ([5]; after s.c. injection, UPLC-ESI-MS)	C3 saturation time (peptide above plasma level of C3) ([5]; single s.c. 2 mg/kg)	CL/F, apparent clearance ([5]; single s.c. 2 mg/kg, SUM for Lys analogs, 2 mg/kg)	detection in vitreous over time ([6]; single i.v.t. 500 μg, days 14-90)	binding affinity for C3 (C3)	binding affinity for C3 higher than that of the parent peptide (C3)	C3 saturation time (peptide above plasma level of C3) ([5]; single s.c. 2 mg/kg, 2 mg/kg)	detection in vitreous ([6]; 100 μg i.v.t.)
CC[C@H](C)[C@H](NC(=O)[C@@H](Cc1ccc(O)cc1)NC(=O)CCOCCOCCOCCOCCOCCOCCOCCOCCOCCOCCOCCOC)C(=O)N[C@H]1CSSC[C@@H](C(=O)N(C)[C@H](C(N)=O)[C@@H](C)CC)NC(=O)[C@H](CCCNC(=N)N)NC(=O)[C@H](Cc2c[nH]cn2)NC(=O)[C@H](C)NC(=O)CN(C)C(=O)[C@H](Cc2c[nH]c3ccccc23)NC(=O)[C@H](CC(=O)O)NC(=O)[C@H](CCC(N)=O)NC(=O)[C@H](Cc2cn(C)c3ccccc23)NC(=O)[C@H](C(C)C)NC1=O [mPEG(528)-Cp40]	7-7.5	2.3 mg/mL	5 fold	1.00 ± 0.27 10^6M^−1s^−1	2.45 ± 0.28 10^−3s^−1	2.58 ± 0.51 nM	83.5 ± 8.1 nM	–	–	–	–	–	–	–	–	–	–	–
CC[C@H](C)[C@H](NC(=O)[C@H](N)Cc1ccc(O)cc1)C(=O)N[C@H]1CSSC[C@@H](C(=O)N(C)[C@H](C(=O)N[C@@H](CCCCN)C(=O)N[C@@H](CCCCN)C(N)=O)[C@@H](C)CC)NC(=O)[C@H](CCCNC(=N)N)NC(=O)[C@H](Cc2c[nH]cn2)NC(=O)[C@H](C)NC(=O)CN(C)C(=O)[C@H](Cc2c[nH]c3ccccc23)NC(=O)[C@H](CC(=O)O)NC(=O)[C@H](CCC(N)=O)NC(=O)[C@H](Cc2cn(C)c3ccccc23)NC(=O)[C@H](C(C)C)NC1=O [Cp40-KK, DTyr-Ile-[Cys-Val-Trp(Me)-Gln-Asp-Trp-Sar-Ala-His-Arg-Cys]-mIle-Lys-Lys—NH2]	7-7.5	–	–	–	1.52 ± 0.25 10^−3s^−1	0.44 ± 0.17 nM	61.8 ± 4.2 nM	inhibitory activity in a dose-dependent manner	metabolized to minimal amounts of Cp40-K	85.2 µM·h	Cp40-K was also detected in the NHP plasma samples, beginning at 30 min after sc injection; also recorded: cleaved in vivo generating minimal amounts of Cp40-K	2.5 to 5 h	3348 ((mg/kg)/(μM · h) and 2648 ((mg/kg)/(μM · h)	no longer detected on day 90	–	–	–	–
CC[C@H](C)[C@H](NC(=O)[C@@H](Cc1ccc(O)cc1)NC(=O)CCOCCOCCOCCOCCOCCOCCOCCOCCOCCOCCOCCOCCOCCOCCOCCOCCOCCOCCOCCOCCOCCOCCOCCOC)C(=O)N[C@H]1CSSC[C@@H](C(=O)N(C)[C@H](C(N)=O)[C@@H](C)CC)NC(=O)[C@H](CCCNC(=N)N)NC(=O)[C@H](Cc2c[nH]cn2)NC(=O)[C@H](C)NC(=O)CN(C)C(=O)[C@H](Cc2c[nH]c3ccccc23)NC(=O)[C@H](CC(=O)O)NC(=O)[C@H](CCC(N)=O)NC(=O)[C@H](Cc2cn(C)c3ccccc23)NC(=O)[C@H](C(C)C)NC1=O [mPEG(1056)-Cp40]	7-7.5	–	–	0.72 ± 0.25 10^6M^−1s^−1	2.80 ± 0.95 10^−3s^−1	3.93 ± 0.39 nM	52 ± 2.7 nM	–	–	–	–	–	–	–	–	–	–	–
CC[C@H](C)[C@H](NC(=O)[C@H](N)Cc1ccc(O)cc1)C(=O)N[C@H]1CSSC[C@@H](C(=O)N(C)[C@H](C(N)=O)[C@@H](C)CC)NC(=O)[C@H](CCCNC(=N)N)NC(=O)[C@H](Cc2c[nH]cn2)NC(=O)[C@H](C)NC(=O)CN(C)C(=O)[C@H](Cc2c[nH]c3ccccc23)NC(=O)[C@H](CC(=O)O)NC(=O)[C@H](CCC(N)=O)NC(=O)[C@H](Cc2cn(C)c3ccccc23)NC(=O)[C@H](C(C)C)NC1=O [Cp40, DTyr-Ile-[Cys-Val-Trp(Me)-Gln-Asp-Trp-Sar-Ala-His-Arg-Cys]-mIle-NH2, reference compound]	7.5	–	–	–	1.84 ± 0.40 10^−3s^−1	0.53 ± 0.14 nM	56.8 ± 3 nM	inhibitory activity in a dose-dependent manner	–	–	–	–	–	–	subnanomolar	~6,000 fold	4 to 5 h and ~4.5 h	no detection of any compound was observed after one month
CC[C@H](C)[C@H](NC(=O)[C@H](N)Cc1ccc(O)cc1)C(=O)N[C@H]1CSSC[C@@H](C(=O)N(C)[C@H](C(=O)N[C@@H](CCCCN)C(N)=O)[C@@H](C)CC)NC(=O)[C@H](CCCNC(=N)N)NC(=O)[C@H](Cc2c[nH]cn2)NC(=O)[C@H](C)NC(=O)CN(C)C(=O)[C@H](Cc2c[nH]c3ccccc23)NC(=O)[C@H](CC(=O)O)NC(=O)[C@H](CCC(N)=O)NC(=O)[C@H](Cc2cn(C)c3ccccc23)NC(=O)[C@H](C(C)C)NC1=O [Cp40-K, DTyr-Ile-[Cys-Val-Trp(Me)-Gln-Asp-Trp-Sar-Ala-His-Arg-Cys]-mlle-Lys—NH2]	7.5	–	–	–	1.85 ± 0.50 10^−3s^−1	0.92 ± 0.2 nM	95.6 ± 9.2 nM	inhibitory activity in a dose-dependent manner	–	–	–	–	–	–	–	–	–	–
